Ki and GI50 data for 24 molecules are collected here from patent publication US10807959B2, “WDR5-MLL1 inhibitors and modulators” (Vanderbilt University, priority 2018, dated 2020).

The target of one experiment is WDR5 (Homo sapiens (Human), UniProt P61964). Description: TR-FRET binding assay, displacement of 10mer-Thr-FAM probe from His-tagged WDR5. To be noted: Inhibition of WDR5 by TR-FRET assay. As for the experimental part: The LanthaScreenTM Elite Tb-anti-HIS Antibody from ThermoFisher Scientific was used for this purpose. […] The ratio of the 520 and 495 signals are then utilized to generate a dose-response curve to calculate an IC50 value. […] WDR[…] tag protein is used at 2 nM.
A general note: Time-resolved FRET reads energy transfer from a long-lived donor to a nearby acceptor.

The subject of another experiment is MV4:11 cells. Description: Cellular viability / anti-proliferative activity, CellTiter-Glo, 7 day protocol. It is filed as cell-based, human. To be noted: 168 h; cellular proliferation of MV4:11 human cancer cell lines, 7 day. As for the experimental part: Anti proliferative activity using MLL-harboring cell lines. MV4:11 cells are grown in RPMI-1640 media supplemented with 10% FBS and 1% penicillin/streptomycin. Viability assays are performed by dispensing […] into each well of an opaque 384-well plate and adding compounds at the indicated concentrations in a final volume of 32 μL and a final concentration of DMSO of 0.1% for all samples. After a set incubation period, 7 day protocol, the viability of cells in each well is assessed using the CellTiter-Glo assay (Promega), read on a GloMax 96 Microplane Luminometer (Promega). Serial dilutions of each cell type are included in all assays to generate standard curves and determine assay measurements are taken within the dynamic range of the instrument. GI50 values are calculated based on three biological replicates, each with three technical replicates. Data are expressed as mean plus/minus S.E.M.

In turn, `COc1cc(OC)cc(C(C)NC(=O)c2cc(CNC3=NCCN3)cc(-c3ccc(F)nc3C)c2)c1` (stereo not drawn) [Example 7, 3-(((4,5-Dihydro-1H-imidazol-2-yl)amino)methyl)-N-(1-(3,5-dimethoxyphenyl)ethyl)-5-(6-fluoro-2-methylpyridin-3-yl)benzamide] had a Ki on WDR5 of 0.11 nM. In the experiment on MV4:11 cells, the GI50 was 280 nM.
Regarding `Cc1cc(-c2cc(CNC3=NCCN3)cc(C(=O)NCc3ccc(Cl)c(C)c3)c2)cc(C)n1` [Example 41, N-(4-chloro-3-methylbenzyl)-3-(((4,5-dihydro-1H-imidazol-2-yl)amino)methyl)-5-(2,6-dimethylpyridin-4-yl)benzamide], the Ki on WDR5 is below 0.1 nM. For the same molecule, growth with MV4:11 cells was halved (GI50) at 170 nM.
On to `COc1ccnc(CNC(=O)c2cc(CNC3=NCCC3)cc(-c3ccc(F)nc3C)c2)c1` [Example 53, 3-(((3,4-Dihydro-2H-pyrrol-5-yl)amino)methyl)-5-(6-fluoro-2-methylpyridin-3-yl)-N-((4-methoxypyridin-2-yl)methyl)benzamide], for which, on WDR5, the Ki was 0.53 nM. Further, the GI50 with MV4:11 cells was 630 nM.
As for `Cc1cc(C(C)NC(=O)c2cc(CNC3=NCCC3)cc(-c3ccc(F)nc3C)c2)ncc1Cl` (stereo not drawn) [Example 54, N-(1-(5-Chloro-4-methylpyridin-2-yl)ethyl)-3-(((3,4-dihydro-2H-pyrrol-5-yl)amino)methyl)-5-(6-fluoro-2-methylpyridin-3-yl)benzamide], the inhibition constant (Ki) at WDR5 is 0.31 nM. In addition, the GI50 with MV4:11 cells amounted to 180 nM.
For the molecule `COc1cc(OC)cc(C(C)NC(=O)c2cc(CNC3=NCCC3)cc(-c3ccc(F)nc3C)c2)c1` (stereo not drawn) [Example 55, 3-(((3,4-Dihydro-2H-pyrrol-5-yl)amino)methyl)-N-(1-(3,5-dimethoxyphenyl)ethyl)-5-(6-fluoro-2-methylpyridin-3-yl)benzamide], the Ki at WDR5 was determined as 11 nM. This molecule gave a GI50 in the experiment with MV4:11 cells of 440 nM.
With `COc1cc(CN(C)C(=O)c2cc(CNC3=NCCC3)cc(-c3ccc(F)nc3C)c2)cc(OC)c1` [Example 56, 3-(((3,4-Dihydro-2H-pyrrol-5-yl)amino)methyl)-N-(3,5-dimethoxybenzyl)-5-(6-fluoro-2-methylpyridin-3-yl)-N-methylbenzamide], on WDR5, the Ki was 20 nM. This molecule also returned a GI50 in the experiment on MV4:11 cells of 6400 nM.
On to `COc1cc(CNC(=O)c2cc(CNC3=NCCC3)cc(-c3ccnc(C)c3)c2)cc(OC)c1` [Example 57, 3-(((3,4-Dihydro-2H-pyrrol-5-yl)amino)methyl)-N-(3,5-dimethoxybenzyl)-5-(2-methylpyridin-4-yl)benzamide], for which, at WDR5, the Ki came to 3 nM. The same molecule showed a GI50 in the experiment on MV4:11 cells of 2800 nM.
Molecule `COc1cc(CNC(=O)c2cc(CNC3=NCCC3)cc(-c3ccc(F)cc3C)c2)cc(OC)c1` [Example 59, 5-(((3,4-Dihydro-2H-pyrrol-5-yl)amino)methyl)-N-(3,5-dimethoxybenzyl)-4′-fluoro-2′-methyl-[1,1′-biphenyl]-3-carboxamide] returned a Ki at WDR5 of 0.74 nM. Further, the 50% growth inhibitory concentration (GI50) in the experiment with MV4:11 cells turned out to be 790 nM.
`COc1cc(CNC(=O)c2cc(CNC3=NCCC3)cc(-c3ccc(F)nc3C)c2)cc(OC)c1` [Example 60, 3-(((3,4-Dihydro-2H-pyrrol-5-yl)amino)methyl)-N-(3,5-dimethoxybenzyl)-5-(6-fluoro-2-methylpyridin-3-yl)benzamide]: the Ki at WDR5 turned out to be 0.55 nM. The molecule also had a 50% growth inhibitory concentration (GI50) in the experiment with MV4:11 cells of 360 nM.
On WDR5, `Cc1cc(CNC(=O)c2cc(CNC3=NCCC3)cc(-c3cccc(CO)c3)c2)ccc1Cl` [Example 63, N-(4-Chloro-3-methylbenzyl)-5-(((3,4-dihydro-2H-pyrrol-5-yl)amino)methyl)-3′-(hydroxymethyl)-[1,1′-biphenyl]-3-carboxamide] displayed an inhibition constant (Ki) of 0.88 nM. In the experiment on MV4:11 cells, the 50% growth inhibitory concentration (GI50) is 1900 nM.
`Cc1cc(CNC(=O)c2cc(CNC3=NCCC3)cc(-c3cccnc3C(F)(F)F)c2)ccc1Cl` [Example 67, N-(4-Chloro-3-methylbenzyl)-3-(((3,4-dihydro-2H-pyrrol-5-yl)amino)methyl)-5-(2-(trifluoromethyl)pyridin-3-yl)benzamide] had a Ki at WDR5 below 0.1 nM. The molecule also came in with a 50% growth inhibitory concentration (GI50) with MV4:11 cells of 50 nM.
In turn, `Cc1cc(CNC(=O)c2cc(CNC3=NCCC3)cc(-c3ccc(F)cc3C(F)(F)F)c2)ccc1Cl` [Example 68, N-(4-chloro-3-methylbenzyl)-5-(((3,4-dihydro-2H-pyrrol-5-yl)amino)methyl)-4′-fluoro-2′-(trifluoromethyl)-[1,1′-biphenyl]-3-carboxamide] returned a Ki on WDR5 of 0.3 nM. Further, in the experiment with MV4:11 cells, growth was halved (GI50) at 160 nM.
For `COc1cc(F)ccc1-c1cc(CNC2=NCCC2)cc(C(=O)NCc2ccc(Cl)c(C)c2)c1` [Example 70, N-(4-chloro-3-methylbenzyl)-5-(((3,4-dihydro-2H-pyrrol-5-yl)amino)methyl)-4′-fluoro-2′-methoxy-[1,1′-biphenyl]-3-carboxamide] the same measures were 0.5 nM and 460 nM.
For `Cc1cc(CNC(=O)c2cc(CNC3=NC(=O)CN3C)cc(-c3ccc(F)nc3C)c2)ccc1Cl` [Example 71, N-(4-Chloro-3-methylbenzyl)-3-(6-fluoro-2-methylpyridin-3-yl)-5-(((1-methyl-4-oxo-4,5-dihydro-1H-imidazol-2-yl)amino)methyl)benzamide] the same measures were 6.6 nM and 5000 nM.
For the molecule `Cc1cc(CNC(=O)c2cc(CNC3=NCCN3)cc(-c3ccc(F)nc3C)n2)ccc1Cl` [Example 74, N-(4-Chloro-3-methylbenzyl)-4-(((4,5-dihydro-1H-imidazol-2-yl)amino)methyl)-6′-fluoro-2′-methyl-[2,3′-bipyridine]-6-carboxamide], the affinity on WDR5 corresponds to a Ki of 0.46 nM. In addition, growth in the experiment with MV4:11 cells was halved (GI50) at 680 nM.
At WDR5, `Cc1ccnc(C(NC(=O)c2cc(CNC3=NCCC3)cc(-c3ccc(F)cc3C(F)(F)F)n2)C2CC2)c1` (stereo not drawn) [Example 90, N-(Cyclopropyl(4-methylpyridin-2-yl)methyl)-4-(((3,4-dihydro-2H-pyrrol-5-yl)amino)methyl)-6-(4-fluoro-2-(trifluoromethyl)phenyl)picolinamide] displayed a Ki of 1.2 nM. Besides, the concentration for 50% growth inhibition (GI50) with MV4:11 cells was 750 nM.
Molecule `COc1cc(CNC(=O)c2cc(CNC3=NCCC3)nc(-c3ccc(F)cc3C(F)(F)F)c2)cc(OC)c1` [Example 91, 2-(((3,4-dihydro-2H-pyrrol-5-yl)amino)methyl)-N-(3,5-dimethoxybenzyl)-6-(4-fluoro-2-(trifluoromethyl)phenyl)isonicotinamide] registered an inhibition constant Ki on WDR5 of 1.6 nM. Also, growth in the experiment with MV4:11 cells was halved (GI50) at 460 nM.
`CCn1cc(-c2cc(CNC(=N)C3CC3)cc(C(=O)N[C@H](c3ccc(F)c(C)c3)C3CC3)c2)c(C(F)(F)F)n1` [Example 105, (S)-3-(Cyclopropanecarboximidamidomethyl)-N-(cyclopropyl(4-fluoro-3-methylphenyl)methyl)-5-(1-ethyl-3-(trifluoromethyl)-1H-pyrazol-4-yl)benzamide] registered a Ki on WDR5 below 0.1 nM. The molecule further showed a concentration for 50% growth inhibition (GI50) in the experiment with MV4:11 cells of 10 nM.
At WDR5, `CCn1cc(-c2cc(CNC(=N)C3CCC3)cc(C(=O)N[C@H](c3ccc(F)c(C)c3)C3CC3)c2)c(C(F)(F)F)n1` [Example 106, (S)-3-(Cyclobutanecarboximidamidomethyl)-N-(cyclopropyl(4-fluoro-3-methylphenyl)methyl)-5-(1-ethyl-3-(trifluoromethyl)-1H-pyrazol-4-yl)benzamide] displayed an inhibition constant (Ki) below 0.1 nM. In addition, in the experiment with MV4:11 cells, halving of growth (GI50) required 30 nM.
At WDR5, `COc1cc(OC)cc(C(C)NC(=O)c2cc(Cn3ccnc3C)cc(-c3ccc(F)nc3C)n2)c1` (stereo not drawn) [Example 159, N-(1-(3,5-Dimethoxyphenyl)ethyl)-6′-fluoro-2′-methyl-4-((2-methyl-1H-imidazol-1-yl)methyl)-[2,3′-bipyridine]-6-carboxamide] gave an inhibitory constant (Ki) of 3.9 nM. Besides, the concentration for 50% growth inhibition (GI50) with MV4:11 cells amounted to 1200 nM.
On WDR5, `COc1cc(CNC(=O)c2cc(CNC3=NCCC3)cc(-c3ccc(F)cc3C)c2N)cc(OC)c1` [Example 168, 2-Amino-5-(((3,4-dihydro-2H-pyrrol-5-yl)amino)methyl)-N-(3,5-dimethoxybenzyl)-4′-fluoro-2′-methyl-[1,1′-biphenyl]-3-carboxamide] gave a Ki of 5.2 nM. The same molecule came in with a GI50 in the experiment on MV4:11 cells of 4800 nM.
On WDR5, `COc1cc(CNC(=O)c2cc(CNC3=NCCN3)cc(-c3ccc(F)cc3C)c2N)cc(OC)c1` [Example 169, 2-Amino-5-(((4,5-dihydro-1H-imidazol-2-yl)amino)methyl)-N-(3,5-dimethoxybenzyl)-4′-fluoro-2′-methyl-[1,1′-biphenyl]-3-carboxamide] returned a Ki of 6.1 nM. The molecule further registered a GI50 in the experiment on MV4:11 cells of 14000 nM.
Take `CNc1c(C(=O)N(C)Cc2cc(OC)cc(OC)c2)cc(CNC2=NCCC2)cc1-c1ccc(F)cc1C` [Example 170, 5-(((3,4-dihydro-2H-pyrrol-5-yl)amino)methyl)-N-(3,5-dimethoxybenzyl)-4′-fluoro-N,2′-dimethyl-2-(methylamino)-[1,1′-biphenyl]-3-carboxamide]: the affinity at WDR5 corresponds to a Ki of 19 nM. Moreover, in the experiment on MV4:11 cells, it took 4700 nM to inhibit growth by half (GI50).
In turn, `CNc1c(C(=O)N(C)Cc2cc(OC)cc(OC)c2)cc(CNC2=NCCN2)cc1-c1ccc(F)cc1C` [Example 171, 5-(((4,5-Dihydro-1H-imidazol-2-yl)amino)methyl)-N-(3,5-dimethoxybenzyl)-4′-fluoro-N,2′-dimethyl-2-(methylamino)-[1,1′-biphenyl]-3-carboxamide] registered an inhibitory constant (Ki) on WDR5 of 19 nM. For the same molecule, the concentration for 50% growth inhibition (GI50) in the experiment with MV4:11 cells was determined as 3800 nM.

Broadly, the Ki is a dissociation constant, usually derived from enzyme kinetics or from competition with a known ligand. Low readings indicate a stronger hold on the target, high ones a looser hold on the target. By GI50 is commonly meant the concentration that inhibits growth by half.
